Where a name gives a salt, the structure may show the parent alone.
Experiments:
Solubility test = format: physicochemical; settings: in water at 25° C.±2° C.
Experimental: The fine powder of the test sample was weighed into an appropriate amount of water at 25° C.±2° C. and shaken vigorously for 30 seconds every 5 minutes so that it was fully dissolved within 30 minutes. If no visible solute particles were observed, it was considered completely dissolved. “Readily soluble” means that 1 g of the test sample could be dissolved in 1-10 ml of water; and “soluble” means that 1 g of the test sample could be dissolved in 10-30 ml of water; “slightly soluble” means that 1 g of the test sample could be dissolved in 30-100 ml of water; and “sparingly soluble” means that 1 g of the test sample could be dissolved in 100-1,000 ml of water; “nearly insoluble or insoluble” means that 1 g of the test sample could not be completely dissolved in 10,000 ml of water.

U937 (FLT3 wild-type) = assay: In vitro growth inhibition (GI50), U937; format: cell-based; settings: Homo sapiens, U-937; Cell lines of leukemia; read-out: GI 50 U937 FLT 3(WT)
[1] = tested on: MV4-11 (FLT3 ITD+/+ mutant type); assay: In vitro growth inhibition (GI50), MV4-11; format: cell-based, human; settings: Homo sapiens, MV4-11; Cell lines of leukemia; read-out: GI 50 MV4-11 FLT3 (ITD +/+)
[2] = tested on: KG-1 (expressing FGFR1OP2-FGFR1 fusion protein); assay: In vitro growth inhibition (GI50), KG-1; format: cell-based; settings: Homo sapiens; Cell lines of leukemia; read-out: GI 50 KG-1 FGFR1OP 2-FGFR1
HL-60 (FLT3 wild type) = assay: In vitro growth inhibition (GI50), HL-60; format: cell-based; settings: Homo sapiens, Cell lines of leukemia, read-out: GI 50 HL60 FLT3 (WT)
Summary of the method: (§1)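 Cells in RPMI1640 with 10% FBS, seeded at 5–10×10^4 cells/mL, exposed next day to compound at 5,000 nM down to 0.01 nM (2- or 10-fold dilutions, ≤1% solvent) for 3–5 days at 37 °C. CCK8 absorbance at 450 nm, growth rate relative to pre-treatment and solvent controls, GI50 from concentration–growth curve.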

[3] = tested on: Kasumi-1 (c-Kit N822K mutant type); assay: In vitro growth inhibition (GI50), Kasumi-1; format: cell-based; settings: Homo sapiens, Cell lines of leukemia, read-out: GI 50 Kasumi-1 Kit (N822K)
Summary of the method: as §1

[4] = tested on: K562 (FLT3 negative expression, positive expression of BCR-ABL fusion protein); assay: In vitro growth inhibition (GI50), K562; format: cell-based; settings: Homo sapiens, Cell lines of leukemia, read-out: GI 50 K562 BCR-ABL
[5] = tested on: MOLM-13 (FLT3 ITD+/− mutant type); assay: In vitro growth inhibition (GI50), MOLM-13; format: cell-based, human; settings: Homo sapiens, MOLM-13; Cell lines of leukemia; read-out: GI 50 MOLM-13 FLT3 (ITD+/−)
[6] = tested on: OCI-AML3 (NPMc+ mutant type); assay: In vitro growth inhibition (GI50), OCI-AML3; format: cell-based; settings: Homo sapiens, OCI-AML-3; Cell lines of leukemia; read-out: GI 50 OCI- AML3 NPMc+
RS4; 11 (FLT3 wild type) = assay: In vitro growth inhibition (GI50), RS4; 11; format: cell-based, human; settings: Homo sapiens, RS4-11; Cell lines of leukemia; read-out: GI 50 RS4: 11 FLT3 (WT)
[7] = tested on: RAMOS (positive expression of Brutons tyrosine protein kinase); assay: In vitro growth inhibition (GI50), RAMOS; format: cell-based; settings: Homo sapiens, Cell lines of leukemia, read-out: GI 50 Ramos BTK

Compound | GI50 (U937 (FLT3 wild-type)) | GI50 [1] | GI50 [2] | GI50 (HL-60 (FLT3 wild type)) | GI50 [3] | GI50 [4] | GI50 [5] | GI50 [6] | GI50 (RS4; 11 (FLT3 wild type)) | GI50 [7] | further results
CC(C)(C)c1cc(NC(=O)Nc2ccc(-n3cnc4cc(OCCN5CCOCC5)ccc43)cc2)[nH]n1 [Compound 89 Mesylate, 1-(5-tert-butyl-2H-pyrazol-3-yl)-3-{4-[5-(2-morpholin-4-yl-ethoxyl)-benzimidazol-1-yl]-phenyl}-urea] |  |  |  |  |  |  |  |  |  |  | Solubility (Solubility test): readily soluble (“Readily soluble” means that 1 g of the test sample could be dissolved in 1-10 ml of water)
COCCOc1ccc2c(c1)ncn2-c1ccc(NC(=O)Nc2cc(C(C)(C)C)n[nH]2)cc1 [Compound 77 Benzene sulfonate, 1-(5-tert-butyl-2H-pyrazol-3-yl)-3-{4-[5-(2-methoxyl-ethoxyl)-benzimidazol-1-yl]-phenyl}-urea] |  |  |  |  |  |  |  |  |  |  | Solubility (Solubility test; listed as 77 Benzene sulfonate): slightly soluble (“slightly soluble” means that 1 g of the test sample could be dissolved in 30-100 ml of water)
COCCOc1ccc2c(c1)ncn2-c1ccc(NC(=O)Nc2cc(C(C)(C)C)n[nH]2)cc1 [Compound 77 Hydrochloride, 1-(5-tert-butyl-2H-pyrazol-3-yl)-3-{4-[5-(2-methoxyl-ethoxyl)-benzimidazol-1-yl]-phenyl}-urea] |  |  |  |  |  |  |  |  |  |  | Solubility (Solubility test; listed as 77 Hydrochloride): slightly soluble (“slightly soluble” means that 1 g of the test sample could be dissolved in 30-100 ml of water)
COCCOc1ccc2ncn(-c3ccc(NC(=O)Nc4cc(C(C)(C)C)n[nH]4)cc3)c2c1 [Compound 98 Mesylate, 1-(5-tert-butyl-2H-pyrazol-3-yl)-3-{4-[6-(2-methoxyl-ethoxyl)-benzimidazol-1-yl]-phenyl}-urea] |  |  |  |  |  |  |  |  |  |  | Solubility (Solubility test): readily soluble (“Readily soluble” means that 1 g of the test sample could be dissolved in 1-10 ml of water)
COCCOc1ccc2c(c1)ncn2-c1ccc(NC(=O)Nc2cc(C(C)(C)C)n[nH]2)cc1 [Compound 77 Trifluoroacetates, 1-(5-tert-butyl-2H-pyrazol-3-yl)-3-{4-[5-(2-methoxyl-ethoxyl)-benzimidazol-1-yl]-phenyl}-urea] |  |  |  |  |  |  |  |  |  |  | Solubility (Solubility test; listed as 77 Trifluoroacetates): slightly soluble (“slightly soluble” means that 1 g of the test sample could be dissolved in 30-100 ml of water)
CC(C)(C)c1cc(N)n(C(=O)Nc2ccc(-n3cnc4cc(OCCO)ccc43)cc2)n1 [Compound 121 Mesylate, 5-amino-3-tert-butyl-pyrazol-1-carboxylic acid {4-[5-(2-hydroxy-ethoxyl)-benzimidazol-1-yl]-phenyl}-amide] |  |  |  |  |  |  |  |  |  |  | Solubility (Solubility test): readily soluble (“Readily soluble” means that 1 g of the test sample could be dissolved in 1-10 ml of water)
CN(C)CCCOc1ccc2c(c1)ncn2-c1ccc(NC(=O)Nc2cc(C(C)(C)C)n[nH]2)cc1 [Compound 81 Mesylate] |  |  |  |  |  |  |  |  |  |  | Solubility (Solubility test): readily soluble (“Readily soluble” means that 1 g of the test sample could be dissolved in 1-10 ml of water)
COc1ccc2c(c1)ncn2-c1ccc(NC(=O)Nc2cc(C(C)(C)C)n[nH]2)cc1 [Compound 71 Hydrochloride, 1-(5-tert-butyl-2H-pyrazol-3-yl)-3-[4-(5-methoxyl-benzimidazol-1-yl)-phenyl]-urea] |  |  |  |  |  |  |  |  |  |  | Solubility (Solubility test; listed as 71 Hydrochloride): slightly soluble (“slightly soluble” means that 1 g of the test sample could be dissolved in 30-100 ml of water)
COc1cc2ncn(-c3ccc(NC(=O)n4nc(C(C)(C)C)cc4N)cc3)c2cc1OC [Compound 129 Mesylate, 5-amino-3-tert-butyl-pyrazol-1-carboxylic acid [4-(5,6-dimethoxyl-benzimidazol-1-yl)-phenyl]-amide] |  |  |  |  |  |  |  |  |  |  | Solubility (Solubility test): readily soluble (“Readily soluble” means that 1 g of the test sample could be dissolved in 1-10 ml of water)
CC(C)(C)c1cc(NC(=O)Nc2ccc(-n3cnc4cc(OCCN5CCOCC5)ccc43)cc2)no1 [Compound 16 Mesylate, 1-(5-tert-butyl-isoxazol-3-yl)-3-{4-[5-(2-morpholin-4-yl-ethoxyl)-benzimidazol-1-yl]-phenyl}-urea] |  |  |  |  |  |  |  |  |  |  | Solubility (Solubility test; listed as 16 Mesylate): readily soluble (“Readily soluble” means that 1 g of the test sample could be dissolved in 1-10 ml of water)
Cc1cc(F)cc2ncn(-c3ccc(NC(=O)Nc4cc(C(C)(C)C)n[nH]4)cc3)c12 [Compound 97, 1-(5-tert-butyl-2H-pyrazol-3-yl)-3-[4-(5-fluoro-7-methyl-benzimidazol-1-yl)-phenyl]-urea] | > 1 µM | 0.001 to 0.01 µM | > 1 µM | > 1 µM | > 1 µM | > 1 µM | 0.001 to 0.01 µM | > 1 µM | > 1 µM | > 1 µM | 
CC(C)(C)c1cc(N)n(C(=O)Nc2ccc(-n3cnc4cc(OCC5CCCO5)ccc43)cc2)n1 (stereo not drawn) [Compound 123, 5-amino-3-tert-butyl-pyrazol-1-carboxylic acid {4-[5-(tetrahydro-furan-2-ylmethoxy)-benzimidazol-1-yl]-phenyl}-amide] | > 1 µM | 0.001 to 0.01 µM | > 1 µM | > 1 µM | > 1 µM | > 1 µM | 0.001 to 0.01 µM | > 1 µM | > 1 µM | > 1 µM | 
COCCOc1ccc2c(c1)ncn2-c1ccc(NC(=O)n2nc(C(C)(C)C)cc2N)cc1 [Compound 120, 5-amino-3-tert-butyl-pyrazol-1-carboxylic acid {4-[5-(2-methoxyl-ethoxyl)-benzimidazol-1-yl]-phenyl}-amide] | > 1 µM | 0.001 to 0.01 µM | 0.1 to 1 µM | > 1 µM | > 1 µM | > 1 µM | 0.001 to 0.01 µM | 0.1 to 1 µM | > 1 µM | > 1 µM | 
Cc1ccnc2c1ncn2-c1ccc(NC(=O)Nc2cc(C(C)(C)C)on2)cc1 [Compound 55, 1-(5-tert-butyl-isoxazol-3-yl)-3-[4-(7-methylimidazo[4,5-b]pyridin-3-yl)-phenyl]-urea] | > 1 µM | 0.01 to 0.1 µM | > 1 µM | > 1 µM | > 1 µM | > 1 µM | 0.01 to 0.1 µM | 0.1 to 1 µM | > 1 µM | > 1 µM | 
CCOc1ccc2c(c1)ncn2-c1ccc(NC(=O)Nc2cc(C(C)(C)C)on2)cc1 [Compound 6, 1-(5-tert-butyl-isoxazol-3-yl)-3-[4-(5-ethoxyl-benzimidazol-1-yl)-phenyl]-urea] | > 1 µM | 0.0001 to 0.001 µM | > 1 µM | > 1 µM | > 1 µM | > 1 µM | 0.0001 to 0.001 µM | > 1 µM | > 1 µM | > 1 µM | 
Cc1noc(NC(=O)Nc2ccc(-n3cnc4ccccc43)cc2)c1C [Compound 131, 1-(4-benzimidazol-1-yl-phenyl)-3-(3,4-dimethyl-isoxazol-5-yl)-urea] | > 1 µM | 0.1 to 1 µM | > 1 µM | > 1 µM | > 1 µM | > 1 µM | 0.1 to 1 µM | > 1 µM | > 1 µM | > 1 µM | 
CC(C)(C)c1cc(NC(=O)Nc2ccc(-n3cnc4c(F)cccc43)cc2)no1 [Compound 34, 1-(5-tert-butyl-isoxazol-3-yl)-3-[4-(4-fluoro-benzimidazol-1-yl)-phenyl]-urea] | > 1 µM | 0.0001 to 0.001 µM | > 1 µM | > 1 µM | > 1 µM | > 1 µM | 0.0001 to 0.001 µM | > 1 µM | > 1 µM | > 1 µM | 
CCCCCCOc1ccc2c(c1)ncn2-c1ccc(NC(=O)Nc2cc(C(C)(C)C)on2)cc1 [Compound 7, 1-(5-tert-butyl-isoxazol-3-yl)-3-[4-(5-hexyloxyl-benzimidazol-1-yl)-phenyl]-urea] | > 1 µM | 0.0001 to 0.001 µM | > 1 µM | > 1 µM | > 1 µM | > 1 µM | 0.0001 to 0.001 µM | > 1 µM | > 1 µM | > 1 µM | 

Source: US10647680B2, “Urea compound, preparation method therefor and medical use thereof” (Ancureall Pharmaceutical (Shanghai) Co., Ltd., priority 2016, dated 2020)
